What was measured:
[1] = Cell viability in MCF7 cells, compounds at 1 μM for 3 days; format: cell-based; conditions: human, 1 μM concentration, read-out: cellular viability
Method: We began our biological investigations by assaying the cytotoxicity of natural deoxyelephantopin (DEP) and its unnatural analogues in four different cancer cell lines (Fig. 5a, Supplementary Figs 6–8).
Supplementary figure 8: Cell viability measurements in MCF7 cells. All compounds were tested at 1 μM concentration for 3 days (values±SD are shown; n = 3).
Supplementary figure 9: Propidium iodide and DAPI staining of MCF7 cells treated with either DMSO, 10% ethanol (necrosis positive control) or 20 µM DEP for 8 h. Scale bar […]
Biological materials. All materials were purchased from Sigma Aldrich unless otherwise stated. DMEM/High glucose media, phosphate buffered saline (PBS), MEM Non-Essential Amino Acids, Penicillin-Streptomycin (Pen/Strep) and Trypsin-EDTA were obtained from Life Technologies. Protein concentration was determined using the Bradford assay (Bio-Rad).
Cell culture and preparation of lysates. […] Cells were lysed by sonication to form cell lysates and protein concentration was determined using the Bradford […]
’ cells/mL and HeLa: 1 ’ cells/mL) in a 96-well plate and allowed to attach overnight. […] Cells were imaged using a SpectraMax i3 plate reader equipped with a SpectraMax MiniMax imaging cytometer (Molecular Devices). […]
Caspase activity labeling for fluorescence cell imaging. […]

[2] = target: T1, Zinc finger protein 346 (ZNF346) (Homo sapiens, UniProt Q9UL40); test: SILAC competitive profiling with probe 24c in MCF7 lysates: ZNF346; format: binding; conditions: 1 h, then 10 µM 24c
T1 construct: 1,522 proteins were enriched from MCF7 cells by 10 μM probe 24c; endogenous in cells; host or cells: MCF7
T1 sequence (Q9UL40 whole entry): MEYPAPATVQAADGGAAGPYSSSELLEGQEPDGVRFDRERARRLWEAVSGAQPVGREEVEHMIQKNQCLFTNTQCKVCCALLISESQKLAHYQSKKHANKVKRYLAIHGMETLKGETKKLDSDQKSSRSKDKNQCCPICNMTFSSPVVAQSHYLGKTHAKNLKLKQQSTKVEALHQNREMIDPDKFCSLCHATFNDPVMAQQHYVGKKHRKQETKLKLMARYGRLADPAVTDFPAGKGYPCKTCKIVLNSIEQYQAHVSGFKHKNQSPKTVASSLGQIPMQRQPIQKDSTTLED
Source text: In our efforts to determine the direct molecular targets of deoxyelephantopin we first performed a gel-based competitive in situ proteomic profiling assay[41] […] While the greater conformational flexibility of probe 24c could potentially lead to more promiscuous target engagement relatively to deoxyelephantopin, it was favoured based on the fact that an alkyne moiety appended to the rigid scaffold of deoxyelephantopin may hinder some of its interactions. MCF7 cells were pretreated with various concentrations of deoxyelephantopin for 4 h, harvested, lysed and the lysates were treated with the fluorogenic probe 24c-Cy3 (10 μM; Supplementary Fig. 10). […] Furthermore, cells were pretreated with 20 μM concentration of deoxyelephantopin or 24c and the proteomic profiles were compared (Fig. 6b, Supplementary Fig. 11). Multiple bands were detected that were equally competed by both DEP and 24c, thus again confirming that 24c can be used as an acceptable clickable analogue of deoxyelephantopin in pulldown assays. Having established the optimal labelling conditions by SDS–PAGE, we next carried out a mass spectrometry-based competitive profiling assay[42] coupled with the method of stable isotope labelling of amino acids in culture (SILAC)[43]. […]
visualization were performed as described above. Images were quantified with ImageJ and kinetics values were calculated using GraphPad Prism (V6.03). […]

C=C(C)C(=O)O[C@H]1CC2=C[C@@H](C/C(C)=C/[C@H]3OC(=O)C(=C)[C@H]13)OC2=O [deoxyelephantopin]
viability at 3 days, 1 µM [1]: < 30% | SILAC ratio 20 µM Deoxyelephantopin/DMSO with 24c [2]: 0.22
